Tests used:
[1] = test system: recombinant SARS2 encoding A173V M^pro; type: cell-based, SARS-CoV-2; details: read-out: IC50 (95% CI)
[2] = test system: recombinant SARS2 encoding ∆P168/A173V M^pro; type: cell-based, SARS-CoV-2; details: read-out: IC50 (95% CI)
[3] = test system: SARS2 M^pro P168G; details: cited from earlier work
[4] = test system: recombinant SARS2 encoding ∆P168 M^pro; assay: microbe, parasite or virus in culture; type: cell-based; details: […], A549-hACE2 cells
[5] = target: T1, SARS2 M^pro P168S (Severe acute respiratory syndrome coronavirus 2, UniProt P0DTD1, P3431S); type: cell-based, SARS-CoV-2
[6] = target: SARS2 M^pro M49I (Severe acute respiratory syndrome coronavirus 2, UniProt P0DTD1, M3312I); details: cited from earlier work
[7] = target: T1, SARS2 M^pro P168S; details: cited from earlier work

Row | SMILES | IC50 [1] [nM] | IC50 [2] [nM] | effect of amino acid change on inhibitor susceptibility [3] | further results
1 | Cn1cnc(Cn2c(=O)[nH]/c(=N\c3cc4cn(C)nc4cc3Cl)n(Cc3cc(F)c(F)cc3F)c2=O)n1 [Ensitrelvir, ensitrelvir] | 7.8 | 3.3 |  | 
2 | CC(C)C[C@H](NC(=O)OCc1ccccc1)C(=O)N[C@@H](C[C@@H]1CCNC1=O)C(O)S(=O)(=O)[O-].[Na+] (stereo partly drawn) [GC376] |  |  | no effect | 
3 | CCC(CC)COC(=O)[C@H](C)N[P@](=O)(OC[C@H]1O[C@@](C#N)(c2ccc3c(N)ncnn23)[C@H](O)[C@@H]1O)Oc1ccccc1 [Remdesivir, remdesivir] | 1300 | 1500 |  | Fold change in antiviral EC50 [4]: 0.9 fold; Fold change in antiviral EC50 ([4]; listed as remdesivir): none of the mutants alter susceptibility
4 | CC(C)(C)NC(=O)N[C@H](C(=O)N1C[C@H]2[C@@H]([C@H]1C(=O)NC(CC1CCC1)C(=O)C(N)=O)C2(C)C)C(C)(C)C (stereo partly drawn) [boceprevir] |  |  | improve susceptibility | fold increase in susceptibility [5]: 5.5 fold; effect of substitution on inhibitor susceptibility [6]: little effect; effect of amino acid change on inhibitor susceptibility [7]: improve susceptibility
5 | CC(C)(C)[C@H](NC(=O)C(F)(F)F)C(=O)N1C[C@H]2[C@@H]([C@H]1C(=O)N[C@H](C#N)C[C@@H]1CCNC1=O)C2(C)C [Nirmatrelvir, nirmatrelvir] | 36 |  |  | 

— paper PMC10058310 (Science Advances, 2023)
